Consider 9 compounds from patent US8852876B2, “Label free biosensors and cells” (Corning Incorporated, priority 2008, dated 2014).

The subject of data set [1] is EGF-induced response of quiescent A431 cells. The data set can be described thus: Effect of compound pretreatment on EGF-induced DMR response. In kind it is cell-based, human. Conditions: for Effect of pretreatment on 32 nM EGF-induced response: quiescent A431 cells. The procedure: Both A431 and CHO-K1 cells were grown in Dulbecco's modified Eagle's medium (DMEM) supplemented with 10% fetal calf serum, 100 μg/ml penicillin, and 100 μg/ml streptomycin. For cell culture, certain numbers of cells (2×10^5 to 1×10^6), either A431 or CHO-K1, were suspended in […] medium were placed in each well of a 96 well Corning Epic Biosensor microplate, and were cultured at 37° C. in air/5% CO2 for certain time until the cell density reached ˜90% and above (unless specified). The resulted cells were termed as “profilerating” cells. The “quiescent” cells were obtained by culturing the profilerating cells of desired confluencies with a medium containing no or little (˜0.1% fetal bovine serum (FBS)) for at least 16 hours.
During the assays, the cells in 100 μl medium were subject to two 25 μl HBSS buffer containing 20 mM HEPES, pH 7.4, each separated by at least 15 minutes before 50 μl stimulus-containing solution was applied. During all these steps, a parallel angular interrogation system was used to monitor the real time kinetics of cellular responses. For compound effect studies, a modified protocol was used which starts with 50 μl medium, and subject to sequential treatment: 25 μl HBSS buffer twice (each separated by at least 15 minutes), 50 μl compound solution and finally 50 μl stimulus-containing solution.

The target of data set [2] is T1, protease activated receptors PAR1 and PAR2 (Homo sapiens, UniProt P25116).
T1 construct: A431 cells which endogenously express PAR1 and PAR2; endogenous in cells; host or cells: A431
T1 sequence (P25116 22-425): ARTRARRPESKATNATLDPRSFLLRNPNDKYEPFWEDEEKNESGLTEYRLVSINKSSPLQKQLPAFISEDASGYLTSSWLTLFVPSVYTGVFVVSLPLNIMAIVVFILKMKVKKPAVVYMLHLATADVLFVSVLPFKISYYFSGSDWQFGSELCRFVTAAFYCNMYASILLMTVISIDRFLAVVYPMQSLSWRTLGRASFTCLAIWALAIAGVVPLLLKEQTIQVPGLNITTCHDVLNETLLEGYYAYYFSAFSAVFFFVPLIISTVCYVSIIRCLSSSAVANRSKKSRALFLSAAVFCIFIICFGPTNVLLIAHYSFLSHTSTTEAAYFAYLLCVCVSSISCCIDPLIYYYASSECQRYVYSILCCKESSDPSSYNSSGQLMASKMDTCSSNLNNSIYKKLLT
In kind it is cell-based. Conditions: 40 unit/ml thrombin; modulators 10 μM. As to the method: (§1) Human epidermoid carcinoma A431 cells (American Type Cell Culture) were grown in Dulbecco's modified Eagle's medium (DMEM) supplemented with 10% fetal bovine serum (FBS), 4.5 g/liter glucose, 2 mM glutamine, and antibiotics. ˜3-7.5×10^4 cells at passage 3 to 5 suspended in 200 μl the DMEM medium containing 10% FBS were placed in each well of a 96 well microplate, and were cultured at 37° C. under air/5% CO2 until ˜95% confluency was reached (˜2-4 days).
(§2) The compound or PAR agonist solutions were made in 1×HBSS in order to match the refractive index between the cell medium and compound solution, thus minimizing the unwanted effect of bulk index change due to the introduction of compound solution which can temporarily overwhelms any DMR signal as it occurs.

The test system of data set [3] is protease activated receptors PAR1 and PAR2. In kind it is cell-based, human. Conditions: for Effect of pretreatment on trypsin-mediated DMR signal: 100 or 200 nM trypsin, modulators 10 μM. As to the method: as §1, §2
The subject of data set [4] is quiescent A431 cells. The data set can be described thus: H2O2-induced DMR (reactive oxygen species signaling, redox state). In kind it is cell-based, human. Conditions: for Effect on cell responses mediated with 1 mM H2O2: src kinase modulators; for DMR signal: 4 mM H2O2. An excerpt: In this study, all optical responses were monitored with a wavelength interrogation system. The RWG biosensor is comprised of three major components for bioassay applications: an Epic™ sensor microplate, an RWG detector, and a liquid handling system. The sensor microplate consists of a glass bottom plate attached to a plastic holy plate of a given SBS format (e.g., 96-well or 384-well), which enables high throughput screening. In a 96 well Epic™ sensor microplate, each well contains one RWG sensor of approximately 3×3 mm^2. The RWG sensor consists of a thin film of dielectric material on the grating presenting glass substrate.
The wavelength interrogation detector system is centered on integrated fiber optics. A broadband light source, generated through a fiber optic and a collimating lens at nominally normal incidence through the bottom of the microplate, is used to illuminate a small region of the grating surface. A detection fiber for recording the reflected light is bundled with the illumination fiber. A series of 8 illumination/detection heads are arranged in a linear fashion, so that reflection spectra are collected from all 8 wells within the same column of a microplate at once. With the spatial-controlled movement, the whole plate is moving across the illumination/detection heads so that each sensor can be addressed multiple times, and each column be addressed in sequence. A series of spectra of the reflected lights are collected and used for analysis. Since this detection system measures the wavelength shift of the reflected lights induced by the cell response in response to stimulation, this approach is referred to the wavelength interrogation system.

Data set [5] concerns endogenous GPCRs in A431 cells. The data set can be described thus: DMR optical biosensor profiling of GPCR agonists. The class given is cell-based, human. Conditions: quiescent A431; first class = Gq-type, second = Gs-type, third = Gi-type, fourth = no significant DMR.
For data set [6], the system named is protease activated receptors PAR1 and PAR2. The experiment in a line: Fluo-3 Ca2+ mobilization assay with PAR agonists. In kind it is cell-based, human. As to the method: A431 at passage 3 to 5 were grown in Costar™ 96 well clear cell culture microplates until ˜95% confluency, washed twice and starved overnight with the DMEM only, washed with 1×HBSS (1× regular Hank's balanced salt solution, 20 mM HEPES buffer, pH 7.0) in the presence of 2.5 mM probenicid, and labeled in the same buffer containing 4 μM Fluo-3 for 1 hour at room temperature. The cells were then washed twice with buffer, maintained with 100 μl 1×HBSS containing 2.5 mM probenicid. The assay was initiated by transferring 50 μl PAR agonist solution to the cell plate, and calcium signal was recorded over 6 minutes with a 6 sec interval using HTS7000 BioAssay Reader (PerkinElmer Life Science, Boston, Mass.). The assays were carried out at room temperature in order to allow direct comparison with optical sensing data.

On to `COC(=O)Nc1nc2ccc(C(=O)c3cccs3)cc2[nH]1` [nocodazole], for which the “Effect of pretreatment on 32 nM EGF-induced response” value in data set [1] is given as “hardly any effect on the EGF-induced response”. In data set [2], the “Effect of pretreatment on thrombin-mediated DMR signal” value is “neither a stabilizing polymeric F-actin agent phalloidin nor a microtubule disrupter nocodazole had significant effect”. The “Effect of pretreatment on trypsin-mediated DMR signal” value in data set [3] was “neither a stabilizing polymeric F-actin agent phalloidin nor a microtubule disrupter nocodazole had significant effect”.
For the compound `Nc1ncnc2c1cnn2-c1ccccc1` [PP3], the “Effect on cell responses mediated with 1 mM H2O2” value (from here on “Effect on cell responses mediated”) in data set [4] was “did not affect the responses”.
For the compound `OO` [H2O2, hydrogen peroxide], in data set [4] (1 mM H2O2), the “DMR signal (shift in incident angle)” value is “triggered significant mass redistribution within the sensing volume of the sensors” and the “PWHM of resonant peak of TM0 mode” value was “slightly increased the PWHM of the resonant peak of TM0 mode”. Also, in data set [4] (high redox state cells), the DMR signal result is on record as “a characteristic of cells undergoing apoptosis”. Also, in data set [4] (low redox state cells), the DMR signal result was “a typical DMR signal for the low redox state of cells”. Also, in data set [4] (H2O2 at or above 16 mM), the “DMR signal and Live/Dead cell staining” value is listed as “the cells treated with high doses of H2O2 undergo apoptosis”. Moreover, in data set [4] (H2O2 at or below about 8 mM), the “DMR signal (wavelength shift)” value is “a typical curve that consists of two major events: an initial peak and a prolonged increased mass signal”.
As to `Cc1ccc(-c2nn(C(C)(C)C)c3ncnc(N)c23)cc1` [PP1], in data set [1] (starved A431 cells, 8 nM EGF, 30-minute pretreatment, GH 0.5 ng/ml, PD98059 0.1 mM, PP1 1 μM, wortmannin 0.1 μM, DIP 50 μM), the “Effect of pre-treatment on EGF-induced P-DMR and N-DMR signals” value is “significantly reduced both the binding and DMR signals”. The “Effect on cell responses mediated” value in data set [4] is “significantly suppressed the H2O2-mediated cell responses”.
On to `CC(C)(C)n1nc(-c2ccc(Cl)cc2)c2c(N)ncnc21` [PP2], for which, in data set [4], the “Effect on cell responses mediated” value was “significantly suppressed the H2O2-mediated cell responses”.
In the case of `CN(C)CCCn1cc(C2=C(c3c[nH]c4ccccc34)C(=O)NC2=O)c2ccccc21` [GF 109203x], the “Effect of pretreatment on 32 nM EGF-induced response” value in data set [1] was “partial attenuation on the response”. Moreover, in data set [2], the “Effect of pretreatment on thrombin-mediated DMR signal” value is “no obvious effect on both thrombin- and trypsin-mediated DMR signal”. Moreover, the “Effect of pretreatment on trypsin-mediated DMR signal” value in data set [3] is “no obvious effect on both thrombin- and trypsin-mediated DMR signal”.
Regarding `C/C1=C/C(=O)O[C@@H]2C[C@@H](CC[C@H](C)/C=C\C=C\CC1)O[C@@](O)([C@@H]1CSC(=O)N1)C2` [latrunculin A], in data set [1], the “Effect of pretreatment on 32 nM EGF-induced response” value was “totally abolished the N-DMR signal”. The “Effect of pretreatment on thrombin-mediated DMR signal” value in data set [2] is given as “completely blocked either thrombin- or trypsin-mediated DMR signal”. For the same compound, the “Effect of pretreatment on trypsin-mediated DMR signal” value in data set [3] is reported as “completely blocked either thrombin- or trypsin-mediated DMR signal”.
As to SFFLR-amide [PAR1-AP], the “Class of optical signature (DMR) induced by agonist” value in data set [5] was “first class of optical signatures”. Moreover, in data set [3] (interval about 1 hour), the “Effect of preceding stimulation on trypsin-induced DMR signal” value is listed as “significantly suppresses but not completely eliminates the trypsin-induced DMR signal”. Further, in data set [6] (interval 6 min, 200 nM trypsin), the “Effect of preceding stimulation on trypsin-induced [Ca2+]i elevation” value was “significantly attenuated but not completely eliminates the trypsin-induced [Ca^2+]i elevation”. Besides, the “Maximal [Ca2+]i elevation” value in data set [6] (quiescent A431, Fluo-3) is reported as 74.3±3.9%. The “[Ca2+]i elevation after preceding stimulation with thrombin” value in data set [6] (thrombin 40 unit/ml first, interval 6 min) was 32±4.3%.
In the case of `OC[C@H]1O[C@@H]2O[C@H]3[C@H](O)[C@@H](O)[C@@H](O[C@H]4[C@H](O)[C@@H](O)[C@@H](O[C@H]5[C@H](O)[C@@H](O)[C@@H](O[C@H]6[C@H](O)[C@@H](O)[C@@H](O[C@H]7[C@H](O)[C@@H](O)[C@@H](O[C@H]1[C@H](O)[C@H]2O)O[C@@H]7CO)O[C@@H]6CO)O[C@@H]5CO)O[C@@H]4CO)O[C@@H]3CO` [αCD, α-cyclodextrin], the “Effect of pretreatment on DMR induced by thrombin or trypsin” value in data set [3] (40 unit/ml thrombin, 200 nM trypsin, αCD up to 8 mM) was “little effect on both agonist-induced DMR responses”. Besides, the Cell detachment entry in data set [3] (high doses (>10 mM)) is reported as “resulted in significant amounts of cells detached from the surface of the biosensors”. Besides, in data set [6] (cholesterol depletion, αCD up to 8 mM), the “Effect of pretreatment on [Ca2+]i elevation mediated by trypsin or thrombin” value is “had no effect on both trypsin and thrombin-induced responses”.
